Assay results reported in patent US12220442B2, “Antiepileptic toxin Martentoxin and use thereof” (Shanghai Institute of Organic Chemistry, Chinese Academy of …, priority 2018, dated 2025).

Columns and labels:
[1] = system: hippocampus field potential; assay: Field potential in hippocampus after seizure in rats; format: in vivo, rat; conditions: PTZ epilepsy model, versus normal saline group, n=3
Method: Microarray electrodes were implanted according to the sixth edition of “Rat Brain Stereotactic Atlas” (FIG. 1) edited by George Paxinos and Charles Watson to determine the position of the electrodes: AP: 4.3 mm, MR: 2.2 mm, DV: 2.5 mm, and 3-4 screws were fixed in the blank region of the skull as reference electrodes. The recording electrode and electrode base were fixed with dental cement. Field potentials (FP) were recorded after waking rats. FP signal and sync video could be recorded via omniplex (plexon, USA). According to Nesquet's sampling theory, the back end of the electrode was connected to a preamplifier and coupled to the analog-to-digital converter box. […] was taken as the sampling frequency of local field potential recording, and a […] were set for continuous recording for more than 30 minutes. The local field potential recording results were exported to *. pl2 file format, and visual preview was carried out using offline sorter v4 software. The same channel was used to analyze the local field potential, and the data were derived by MATLAB (MathWorks, USA) program. The local field potential signals of different frequencies were decomposed by wavelet transform to obtain the […] of different frequencies (δ: ˜0-4 Hz, θ: ˜4-8 Hz, α: ˜8-13 Hz, β: ˜13-30 Hz, γ: ˜30-100 Hz). […]

[2] = system: rat hippocampal neurons pretreated with PTZ; assay: Patch clamp current record and action potential analysis; format: cell-based
Method: If the resting membrane potential of the cell was −70 mV and the input resistance was 350MΩ or more, the patch clamp current was considered acceptable. The record was held at −80 mV as the holding current and induced by increasing positive current injection (for 1000 ms). The action potential differences between PTZ treated cells (measured 24 h after application) and PTZ treated epileptic cells (measured 10 min after application) treated with rMarTX were compared. The peak width was measured at half the peak amplitude of the action potential. The difference between the peak threshold value and the minimum voltage after the peak value of the action potential was used as the measurement value of the post-superpotential. Peak interval was the time between action potential peaks.
In the current patch clamp recording, the standard external solution was composed of 1.2 mM MgCl2, 10 mM HEPES, 10 mM glucose, 1.5 mM CaCl2, 2.5 mM KCl and 145 mM NaCl. The pH of the solution was adjusted to 7.4 with NaOH. The internal solution was composed of 1 mM CaCl2, 4 mM MgCl2, 10 mM HEPES, 11 mM EGTA, and 140 mM KCl. The pH of the solution was adjusted to 7.2 with KOH.

[3] = system: hippocampal neurons; assay: Hippocampal neuron damage after seizures in rats (Nissel staining); format: in vivo, rat; conditions: versus normal saline group
Method: (1) The slice was taken out of the −20° C. refrigerator, reheated for 20 min, framed with a histochemical pen around the slice, and dried;
(2) The slice was soaked in distilled water for 2 min;
(3) Nissel staining solution (purchased from Beyotime) was dropped on the brain slice, and dyed in a 37° C. water bath for 10 min;
(4) Washed twice with distilled water for 10 s each time;
(5) Sections were dehydrated with 70%, 80%, 95%, 100% alcohol, 2 min each time, and then soaked with xylene twice, 5 min each time;
(6) The nissel body staining was observed under a microscope and sealed with neutral gum.
The above two groups of animals (6 animals in each group) were randomly selected from 6 to 8 sections to count the neuron cells in different hippocampal regions (CA1, CA3 and DG). Finally, the average value was taken and the increasing rate of the number of neurons was calculated.

[4] = system: rat PTZ convulsion model; assay: Recurrent convulsive behavior of PTZ in rat; format: in vivo
Method: Adult male SD rats were placed in a transparent glass box of 40×30×50 cm to observe the convulsive reaction after administration. Before injection, rats were placed in the box 1 h in advance, moved freely to adapt to the environment, and then injected PTZ (60 mg/kg) intraperitoneally to induce convulsion in rats. The experiment was divided into toxin injection group and normal saline blank control group.
(1) MarTX toxin injection group: after one intraperitoneal injection of PTZ to induce seizures of epilepsy, the rats were injected with MarTX toxin (dissolved in 2 μL normal saline) in the hippocampus the next day, and then the PTZ was injected again. The toxin dose was 0.08 μg, n=7-8 (n is the number of experimental rats);
(2) Normal saline blank control group: after one intraperitoneal injection of PTZ to induce seizures of epilepsy, the rats were injected with the same amount of normal saline into the hippocampus one day later, and then PTZ was injected again, n=6.
In the experiment, “double-blind” dosing and animal behavioral study were used to reduce human error. Incubation period, mortality, duration and number of seizures under different severity of seizures were measured as statistical indexes. The severity of seizures in rats was rated according to the following criteria [Neurophysiol. 1972, 32, 281-294; Brain Res. 1997, 758, 92-98]: • Grade 0: no response; • Grade 1: rhythmic twitch of mouth and face; • Grade 2: wave-like migratory spasm of body; • Grade 3: systemic myoclonus and hip upturned; • Level 4: the body turned to one side; • Grade 5: inverted position, systemic rigidity spasticity seizure.
A complete convulsive seizure was defined as the period from the onset of the seizure to the return to normal after the seizure. The interval of more than 5 s between seizures was defined as another independent seizure. Incubation period was defined as the time from PTZ injection to the beginning of the first grade 2 seizure.

[5] = system: c-Fos expression in hippocampus; assay: c-Fos expression in hippocampus after seizures in rats (immunohistochemistry); format: in vivo, rat; design: concentration or dose not given beside the values
Method: After the completion of the PTZ-induced epileptic status behavior experiment, the animals were anesthetized by intraperitoneal injection of sodium pentobarbital (60 mg/kg). The blood vessels were washed by perfusion of 200 mL normal saline through the ascending aorta of the left ventricle, and then perfused with 400 mL fixative solution (0.1M PBS containing […], pH7.4, 4° C.) for 1-2 h. After the brain tissue was removed and placed in the same fixative overnight, it was immersed in 20% sucrose solution until it sank to the bottom of the container, and then immersed in 30% sucrose solution until it sank to the bottom of the container.
The hippocampal region was secreted from the brain of the rats using a refrigerator slicer (Leica 1900, Germany) with a thickness of 20 μm. The slices were pasted on gelatin-chromium potassium sulfate treated glass slide and frozen at −20° C. for later use. C-Fos immunohistochemistry was performed as follows: • (1) The slice was taken out of the −20° C. refrigerator, reheated for 30 min, framed with a histochemical pen around the slice, and dried; • (2) The slices were immersed for 30 min for braking membrane in 1% Triton-X solution added with 1% H2O2; • (3) Rinsed 3 times with 0.01M PBS (pH7.4) buffer, 5 min for each time; • (4) Sealed with 5% Goat serum at 37° C. for 1 h; • (5) The serum was sucked dry with filter paper, rabbit anti-c-Fos antibody (1: 400, Sc-52, Santa Cruz, USA) was added, the antibody was diluted with 0.01 M PBS, 100 μL for each section, and incubated in a wet box at 4° C. for 48 h; • (6) Rinsed with 0.01 M PBS (pH 7.4) for 10 min and repeated 3 times; • (7) Biotin-labeled goat anti-rabbit IgG diluted with 0.01 M PBS (1:200) was added at room temperature for 2 h; • (8) Rinsed with 0.01 M PBS for 10 min and repeated 3 times. ABC complex (A:B:PBS=1:1:100) was added at room temperature for 2 h; • (9) Rinsed with 0.01 M PBS (pH 7.4) for 10 min and repeated 3 times; • (10) Stained in the dark by DAB-nickel sulfate amine-glucose oxidase (DAB, Sangon Biotech) for 10 min; • (11) Dehydration, 70%, 80%, 95%, 100% (×2) were used for dehydration, 5 min each time, and then soaked with xylene twice, 5 min each time; • (12) The expression of c-Fos was observed under a microscope and sealed with neutral gum.
The number of c-Fos-like immunoreactive (FLI) neurons in different hippocampal regions (CA1, CA3) and dentate gyrus (DG) was counted. Two groups of animals (6 animals in each group) were randomly selected from 6 to 8 sections for FLI counting in different regions (counting respectively on the same side and the other side of injected toxin or normal saline), and the average value was calculated at last. The inhibition rate of c-Fos expression was calculated according to the following formula. Inhibitory ratio=(A−B)/A×100%
Wherein, A represents the number of FLI neurons in the normal saline control group; B represents the number of FLI neurons in the MarTX toxin injection group in the corresponding region of the hippocampus.

[6] = 300 pA current injection, versus normal saline group, n=4
[7] = contralateral hippocampus, CA1 region
[8] = contralateral hippocampus, CA3 region
[9] = contralateral hippocampus, DG region
[10] = ipsilateral hippocampus, CA1 region
[11] = ipsilateral hippocampus, CA3 region
[12] = ipsilateral hippocampus, DG region
[13] = 0.08 μg in hippocampus, PTZ 60 mg/kg i.p., within 2 h
[14] = MarTX relative to normal saline

Martentoxin [MarTX]
Power spectrum density of brain δ, θ, α, β and γ waves [1]: significantly lower | Discharge rate (number of action potentials) ([2]; 100, 200 and 300 pA current injection, versus normal saline group, n=4): significant decrease | Action potential peak interval ([2]; 300 pA current injection, versus PTZ pretreated cells (normal saline group), n=4): significantly longer | Action potential width [2, 6]: greater | Amplitude of the post-hypertrophy potential [2, 6]: significantly increased | Action potential failure ([2]; higher current injection (300 pA), versus normal saline group): more action potential failure | Neuronal increase rate [3, 7]: 79.50% | Neuronal increase rate [3, 8]: 94.82% | Neuronal increase rate [3, 9]: 79.62% | Neuronal increase rate [3, 10]: 95.73% | Neuronal increase rate [3, 11]: 102.02% | Neuronal increase rate [3, 12]: 93.43% | Duration of epilepsy [4, 13]: 160.00 ± 38.47 s | Number of deaths [4, 13]: 0/6 | The number of Grade 3 seizures [4, 13]: 0.50 ± 0.22 | The number of seizures from Grade 1 to Grade 2 [4, 13]: 4.33 ± 1.36 | The number of seizures from Grade 4 to Grade 5 [4, 13]: 0.50 ± 0.34 | Incubation ([4]; 0.08 μg in hippocampus, PTZ 60 mg/kg i.p., within 2 h, time to first grade 2 seizure): 427.17 ± 62.21 s | Decrease of the number of epileptic seizures (Grade 4 & 5) ([4]; 0.08 μg, versus control group): 77% | Duration of epilepsy, relative amplitude [4, 14]: 40% | Incubation, relative amplitude [4, 14]: 272% | The number of Grade 3 seizures, relative amplitude [4, 14]: 14% | The number of seizures from Grade 1 to Grade 2, relative amplitude [4, 14]: 42% | The number of seizures from Grade 4 to Grade 5, relative amplitude [4, 14]: 23% | Reduction of the number of Grade 3 seizures ([4]; versus blank control group): 86% | Reduction of the duration of epilepsy ([4]; versus control group): (2) MarTX toxin also significantly reduced the duration of epilepsy (duration of MarTX group: 160.00 ± 38.47 s, n = 6, *P < 0.05; control group was 400.00 ± 97.57 s, n = 6) by about 60%. | Inhibitory rate of c-Fos expression [5, 7]: 54.01% | Inhibitory rate of c-Fos expression [5, 8]: 55.25% | Inhibitory rate of c-Fos expression [5, 9]: 78.53% | Inhibitory rate of c-Fos expression [5, 10]: 60.71% | Inhibitory rate of c-Fos expression [5, 11]: 51.18% | Inhibitory rate of c-Fos expression [5, 12]: 84.98%
